From ChEMBL document CHEMBL5154650, “Identification and optimization of biphenyl derivatives as novel tubulin inhibitors targeting colchicine-binding site overcoming multidrug resistance” (Eur J Med Chem, 2022)
The source made the active and inactive calls. The calls are words filed in the database; no cut-off is given here.

Legend:
[1] = tested on: A549; assay: Antiproliferative activity against human A549 cells measured after 72 hrs by SRB assay; format: functional, cell-based; settings: Homo sapiens, A549, 72 h
[2] = tested on: K562/Adr; assay: Antiproliferative activity against human K562/Adr cells measured after 72 hrs by SRB assay; format: functional, cell-based
[3] = Resistant index, ratio IC50 for K562/Adr cells over IC50 for K562 cells; format: functional
[4] = tested on: K562; assay: Antiproliferative activity against human K562 cells measured after 72 hrs by SRB assay; format: functional, cell-based; settings: K562, 72 h
[5] = Metabolic stability in human liver microsomes assessed as intrinsic clearance at 1 uM in presence of NADPH measured by LC-MS/MS analysis; format: ADME, Microsome
[6] = Antiproliferative activity against human KB/VCR cells measured after 72 hrs by SRB assay; format: functional, cell-based
[7] = Resistant index, ratio IC50 for KB/VCR cells over IC50 for KB cells; format: functional
[8] = Resistant index, ratio IC50 for KB-V1 cells over IC50 for KB cells; format: functional
[9] = tested on: KB; assay: Antiproliferative activity against human KB cells measured after 72 hrs by SRB assay; format: functional, cell-based
[10] = tested on: KB-V1; assay: Antiproliferative activity against human KB-V1 cells measured after 72 hrs by SRB assay; format: functional, cell-based; settings: KB-V1, 72 h
[11] = biological target: T1, Tubulin (Homo sapiens) (UniProt P68371+Q9H4B7+P0DPH7+P68366+Q13509+Q71U36+P04350+Q3ZCM7+P07437+P68363+Q9BQE3+Q6PEY2+Q13885+Q9BVA1+Q9BUF5); assay: Inhibition of tubulin polymerization in human A549 cells assessed as disruption of microtubule network at 50 nM measured by DAPI staining method; format: cell-based
[12] = biological target: T1, Tubulin (Homo sapiens); assay: Inhibition of tubulin (unknown origin) polymerization incubated for 15 mins at 30 uM relative to control; format: protein-complex assay
[13] = tested on: KB/VCR; assay: Antiproliferative activity against human KB/VCR cells at 0.3 to 30 nM measured in presence of 10 uM verapamil after 72 hrs by SRB assay; format: functional, cell-based; settings: dose 0.3-30 nM
[14] = biological target: T1, Tubulin (Homo sapiens); assay: Inhibition of tubulin polymerization in human A549 cells assessed as disruption of microtubule network at 200 nM measured by DAPI staining method; format: cell-based
[15] = tested on: 4T1; assay: Antitumor activity against mouse 4T1 cells xenografted in female BALB/c mouse assessed as T/C at 25 mg/kg, ip administered every other day for 14 days; format: functional; settings: time 14 day
[16] = tested on: A549; assay: Induction of cell cycle arrest in human A549 cells assessed as accumulation at G2/M phase at 200 nM measured propidium iodide based flow cytometry analysis; format: functional
[17] = tested on: A549; assay: Induction of cell morphological changes in human A549 cells at 400 nM measured after 24 hrs; format: functional, cell-based
[18] = biological target: T1, Tubulin (Homo sapiens); assay: Inhibition of tubulin polymerization in human A549 cells assessed as disruption of microtubule network at 200 nM measured after 24 hrs by DAPI staining method; format: cell-based
[19] = biological target: T1, Tubulin (Homo sapiens); assay: Inhibition of tubulin polymerization in human A549 cells at 3 to 100 uM; format: cell-based; settings: dose 3-100 µM
[20] = tested on: A549; assay: Induction of cell cycle arrest in human A549 cells assessed as accumulation at G2/M phase at 400 nM measured after 24 hrs by propidium iodide based flow cytometry analysis; format: functional

## COc1cc(OC)cc(C(=O)c2ccc(-c3cc(C#N)cc(OC)c3)cc2)c1
[1]
  IC50: 72 nM

## O=C(c1ccccc1)c1ccc(-c2cccc(C(F)(F)F)c2)cc1
[1]
  IC50: 6540 nM

## COc1cccc2c1C(=O)c1c(O)c3c(c(O)c1C2=O)C[C@@](O)(C(=O)CO)C[C@@H]3O[C@H]1C[C@H](N)[C@H](O)[C@H](C)O1.Cl [DOXORUBICIN HYDROCHLORIDE]
[2]
  IC50: 31200 nM
[3]
  Ratio IC50: 287.7
[4]
  IC50: 108 nM

## COc1cccc(C(=O)c2ccc(-c3cc(OC)cc(OC)c3)cc2N)c1
[1]
  IC50: 17 nM

## COc1cccc(C(=O)c2ccc(-c3cc(C#N)cc(OC)c3)cc2)c1
[1]
  IC50: 54 nM

## COc1cc2c(c(OC)c1OC)-c1ccc(OC)c(=O)cc1[C@@H](NC(C)=O)CC2 [COLCHICINE]
[5]
  CLH: 0.384 mL/min/g
[6]
  IC50: 294 nM
[2]
  IC50: 6550 nM
[7]
  Ratio IC50: 16.1
[3]
  Ratio IC50: 64.4
[8]
  Ratio IC50: 73.5
[4]
  IC50: 102 nM
[9]
  IC50: 18.2 nM
[10]
  IC50: 1340 nM

## COc1cc(C#N)cc(-c2ccc(C(=O)c3ccccc3)cc2F)c1
[1]
  IC50: 3890 nM

## COc1cc(C#N)cc(-c2ccc(C(=O)c3ccccc3O)cc2)c1
[1]
  IC50: 135 nM

## O=C(c1ccccc1)c1ccc(-c2cc(C(F)(F)F)cc(C(F)(F)F)c2)cc1
[1]
  IC50: > 10000 nM

## COc1ccccc1-c1ccc(C(=O)c2ccccc2)cc1
[1]
  IC50: 2910 nM

## CC[C@]1(O)C[C@H]2CN(CCc3c([nH]c4ccccc34)[C@@](C(=O)OC)(c3cc4c(cc3OC)N(C=O)[C@H]3[C@@](O)(C(=O)OC)[C@H](OC(C)=O)[C@]5(CC)C=CCN6CC[C@]43[C@@H]65)C2)C1 [VINCRISTINE]
[6]
  IC50: 2010 nM
[7]
  Ratio IC50: 301
[8]
  Ratio IC50: 1282.2
[9]
  IC50: 6.7 nM
[10]
  IC50: 8570 nM

## COc1cccc(-c2ccc(C(=O)c3ccccc3)cc2)c1
[1]
  IC50: 932 nM

## COc1cc(C#N)cc(-c2ccc(C(=O)c3ccco3)cc2)c1
[1]
  IC50: > 10000 nM

## COc1cc(OC)c(-c2ccc(C(=O)c3ccccc3)cc2)cc1OC
[1]
  IC50: > 10000 nM

## COc1cc(C#N)cc(-c2ccc(C(=O)c3ccccc3)c(N)c2)c1
[11]
  inhibition: Active
[12]
  inhibition: 75%
[13]
  Activity: Active

## COc1cc(OC)c(-c2ccc(C(=O)c3ccccc3)cc2)c(OC)c1
[1]
  IC50: > 10000 nM

## COc1cc(C#N)cc(-c2ccc(C(=O)c3ccnc(OC)c3)cc2)c1
[1]
  IC50: 322 nM

## COc1cc(C#N)cc(-c2ccc(C(=O)c3cccs3)cc2)c1
[1]
  IC50: 1190 nM

## COc1cc(C#N)cc(-c2ccc(C(O)c3ccccc3)cc2)c1 (centres undefined)
[1]
  IC50: 770 nM

## COc1cc(-c2ccc(C(=O)c3ccccc3)cc2)cc(OC)c1OC
[1]
  IC50: > 10000 nM

## COc1cc(C#N)cc(-c2ccc(S(=O)(=O)c3ccccc3)cc2)c1
[1]
  IC50: > 10000 nM

## COc1cc(C#N)cc(-c2ccc(C(=O)c3ccccc3)cc2)c1
[6]
  IC50: 30.4 nM
[14]
  inhibition: Active
[1]
  IC50: 62 nM
[2]
  IC50: 226 nM
[12]
  inhibition: 36.1%
[7]
  Ratio IC50: 0.8
[3]
  Ratio IC50: 1.6
[15]
  T/C: 47.2%
[16]
  Activity: 90%
[8]
  Ratio IC50: 1
[4]
  IC50: 144 nM
[9]
  IC50: 37.2 nM
[10]
  IC50: 36.1 nM

## COc1cc(C#N)cc(-c2ccc(C(=O)c3ccccc3Cl)cc2)c1
[1]
  IC50: 306 nM

## COc1cc(OC)cc(-c2ccc(C(=O)c3ccccc3)cc2)c1
[6]
  IC50: 42.5 nM
[17]
  Activity: Active
[1]
  IC50: 94 nM
[18]
  inhibition: Active
[2]
  IC50: 305 nM
[12]
  inhibition: 23.9%
[7]
  Ratio IC50: 0.8
[8]
  Ratio IC50: 1
[19]
  inhibition: Active
[4]
  IC50: 137 nM
[9]
  IC50: 52.7 nM
[10]
  IC50: 51.7 nM
[20]
  Activity: Active
